In the NIST ThermoML archive (doi:10.1021/je700406p):

Conditions: Liquid, Vibrating tube method

CC(C)(N)CO [2-amino-2-methylpropan-1-ol]
mass density [kg/m3]
Conditions | 313.06 K | 322.98 K | 332.91 K | 342.84 K | 352.79 K | 362.65 K
500 kPa | – | 922.7 | 914 | 905.4 | 896.8 | –
504 kPa | – | – | – | – | – | 888
1000 kPa | 931.4 | 922.8 | 914.4 | 905.7 | 897.2 | –
1002 kPa | – | – | – | – | – | 888.4
2000 kPa | 931.9 | 923.4 | 915 | 906.4 | 897.9 | 889
3000 kPa | 932.4 | 924 | 915.6 | 907 | 898.5 | 889.7
4000 kPa | 932.9 | 924.5 | 916.1 | 907.6 | – | 890.5
4001 kPa | – | – | – | – | 899.2 | –
5000 kPa | 933.5 | 925.1 | 916.7 | 908.3 | 899.9 | 891.2
6000 kPa | 933.9 | 925.7 | 917.3 | 908.9 | 900.5 | 891.8
7000 kPa | 934.5 | 926.2 | 918 | 909.5 | – | 892.5
7001 kPa | – | – | – | – | 901.2 | –
8000 kPa | 935 | 926.8 | 918.5 | – | 901.8 | –
8001 kPa | – | – | – | 910.1 | – | 893.2
9007 kPa | 935.5 | 927.4 | – | – | – | –
9009 kPa | – | – | 919.1 | 910.7 | 902.4 | –
9010 kPa | – | – | – | – | – | 893.9
10002 kPa | – | 927.8 | – | – | – | –
10003 kPa | 936 | – | 919.7 | 911.3 | 903.1 | 894.6
11000 kPa | 936.6 | 928.4 | – | – | – | –
11001 kPa | – | – | – | 911.9 | 903.7 | 895.2
11002 kPa | – | – | 920.2 | – | – | –
12000 kPa | 937 | 928.9 | – | 912.5 | 904.3 | 895.8
12001 kPa | – | – | 920.8 | – | – | –
13000 kPa | 937.6 | 929.5 | 921.3 | 913.1 | – | –
13001 kPa | – | – | – | – | 904.9 | 896.5
14000 kPa | 938.1 | 930.1 | 921.9 | 913.6 | 905.5 | 897.1
15002 kPa | 938.6 | – | 922.4 | – | 906.1 | –
15003 kPa | – | 930.6 | – | 914.3 | – | 897.8
16000 kPa | 939.1 | – | – | – | – | –
16001 kPa | – | – | 923 | 914.8 | 906.7 | 898.4
16006 kPa | – | 931.1 | – | – | – | –
17000 kPa | – | – | – | – | – | 899.1
17001 kPa | 939.7 | 931.6 | 923.5 | 915.3 | 907.4 | –
18002 kPa | 940.2 | 932.1 | 924.1 | 915.9 | 907.9 | 899.7
18997 kPa | – | – | – | – | 908.5 | –
19000 kPa | 940.6 | 932.6 | 924.6 | 916.5 | – | 900.3
20029 kPa | 941.1 | – | – | – | – | –
20030 kPa | – | 933.2 | 925.2 | 917.1 | 909.1 | 901
21001 kPa | – | – | – | – | 909.7 | –
21002 kPa | – | – | 925.6 | – | – | –
21004 kPa | 941.7 | – | – | – | – | 901.6
21005 kPa | – | 933.7 | – | 917.6 | – | –
22004 kPa | 942.1 | 934.1 | 926.2 | 918.1 | 910.3 | 902.2
23000 kPa | – | – | 926.7 | 918.7 | 910.9 | 902.8
24003 kPa | – | – | – | – | – | 903.3
24004 kPa | 943.1 | 935.2 | 927.3 | 919.2 | 911.4 | –
